Legend:
[1] = Acute intravenous toxicity in rats (LD50); conditions: rat, in vivo
Description: The activity of these compounds against gastric secretion is linked specifically to their antigastrin activity.

[2] = test system: fundic mucosa; assay: Fundic mucosa hyperplasia induced by pentagastrin in mice; type: in vivo; conditions: 21 days
Description: Inhibitory effect on the rate of growth of tumorous colic cells induced by pentagastrin
Gastrin has a trophic effect on the digestive epithelium.
Upon the basis of this premise, it was wished to investigate whether the gastrin-specific antagonists of the invention could antagonise the growth of experimentally-induced gastrointestinal tumours.
Male mice weighing 20-25 g were inoculated subcutaneously in the interscapular region with a suspension of 8×10^4 tumour cells of a mouse colic adenocarcinoma.
After 21 days, the animals were killed and the fundic mucosa and the tumours were removed, weighed and extracted to determine the DNA.

[3] = molecular target: T1, gastrin receptor sites on the cerebral cortex membranes of mice (Mus musculus, UniProt P56481); assay: Inhibition of the binding of pentagastrin to mouse cortical membranes
T1 construct: Mouse cortical tissue; from tissue; host or cells: mouse cerebral cortex membranes
T1 sequence (P56481 1-453): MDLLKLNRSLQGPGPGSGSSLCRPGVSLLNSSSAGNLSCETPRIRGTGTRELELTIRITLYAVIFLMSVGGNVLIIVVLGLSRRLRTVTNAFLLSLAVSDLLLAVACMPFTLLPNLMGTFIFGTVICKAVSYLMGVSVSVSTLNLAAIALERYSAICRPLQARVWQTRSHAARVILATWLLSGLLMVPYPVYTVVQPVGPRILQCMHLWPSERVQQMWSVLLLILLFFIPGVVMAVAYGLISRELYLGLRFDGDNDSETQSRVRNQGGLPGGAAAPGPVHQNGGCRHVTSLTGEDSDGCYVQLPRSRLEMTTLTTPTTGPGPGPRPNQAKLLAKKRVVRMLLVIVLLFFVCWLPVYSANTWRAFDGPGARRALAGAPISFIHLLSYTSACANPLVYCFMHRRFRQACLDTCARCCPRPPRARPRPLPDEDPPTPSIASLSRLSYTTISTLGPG
Description: Tests on binding to cerebral cortex membranes of mice
The capacities of some of the compounds of the invention to inhibit the binding of pentagastrin to the gastrin receptor sites on the cerebral cortex membranes of mice was to be evaluated. Pentagastrin tritiate[beta-alanyl-3-3H(N)] was used as the ligand.
Mouse cortical tissue Was homogenised cold in 20 volumes of tris buffer (pH 7.7). After washing and centrifuging, the final pellet was resuspended in 20 volumes of binding buffer containing, inter alia, TRIS, BSA and Bacitracin. 0.4 ml of the membrane thus obtained were then incubated with a radioactive tracer and the compounds under test for 40 minutes at 37° C.
After the supernatant liquid had been removed by centrifuging, the radioactivity associated with the pellet was determined with a liquid scintillator (a beta-counter). The specific binding was the difference between the binding in the absence and in the presence of 10^-5M pentagastrin.

[4] = pentagastrin + C-5 3 mg/Kg i.p. twice a day
[5] = pentagastrin + C-5 10 mg/Kg i.p. twice a day

O=C(O)CC[C@@H](NC(=O)c1cc(Cl)cc(Cl)c1)C(=O)N1CCC2(CCCC2)CC1 [Compound C5]
LD50 [1]: ~400 mg/kg
selectivity ratio [1]: ~25
Effect on the fundic mucosa (in words) ([2]; mice): can inhibit both the aforementioned trophic effects of pentagastrin in a significant and dose-dependent manner
Fundic DNA, Mean ± SD [2, 4]: 0.268 ± 0.03 mg
Weight of the mucosa fundica, Mean ± SD [2, 4]: 23.85 ± 3.48 mg
Fundic DNA, Mean ± SD [2, 5]: 0.252 ± 0.03 mg
Weight of the mucosa fundica, Mean ± SD [2, 5]: 18.90 ± 2.54 mg
IC50 ([3]; pentagastrin tritiate ligand, 40 minutes at 37° C., read-out: IC50, inhibition of the binding of pentagastrin): 110 nM
Activity on the central receptor relative to C-30 ([3]; vs C-30): three times less active
